Assay results taken from PubChem BioAssay AID2060506 (Molecular Pharmacology Branch, DTP, NCI, 2025).

Test system: 598228-144-R-J1-PDC complex spheroid viability
Assay: Anticancer human tumor 598228-144-R-J1-PDC patient-derived serous endometrial adenocarcinoma cell line growth inhibition [GQUAD]
Details: for IC50: curve of first compound; for viability, T/C: stronger effect = lower value
How it was run: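 Viability of tumor cells grown as complex spheroids with endothelial and stromal cells, exposed to drug combinations. Top concentration at or near clinical Cmax (else 10 microM), diluted in half-log increments.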

[1] = second compound 0.0316 µM, first compound 0.0316 µM
[2] = second compound 0.0316 µM, first compound 0.1 µM
[3] = second compound 0.0316 µM, first compound 0.316 µM
[4] = second compound 0.0316 µM, first compound 1 µM
[5] = second compound 0.0316 µM, first compound 3.16 µM
[6] = second compound 0.0316 µM, first compound 10 µM
[7] = second compound 0.1 µM, first compound 0.0316 µM
[8] = second compound 0.1 µM, first compound 0.1 µM
[9] = second compound 0.1 µM, first compound 0.316 µM
[10] = second compound 0.1 µM, first compound 1 µM
[11] = second compound 0.1 µM, first compound 3.16 µM
[12] = second compound 0.1 µM, first compound 10 µM
[13] = second compound 0.316 µM, first compound 0.0316 µM
[14] = second compound 0.316 µM, first compound 0.1 µM
[15] = second compound 0.316 µM, first compound 0.316 µM
[16] = second compound 0.316 µM, first compound 1 µM
[17] = second compound 0.316 µM, first compound 3.16 µM
[18] = second compound 0.316 µM, first compound 10 µM
[19] = second compound 1 µM, first compound 0.0316 µM
[20] = second compound 1 µM, first compound 0.1 µM
[21] = second compound 1 µM, first compound 0.316 µM
[22] = second compound 1 µM, first compound 1 µM
[23] = second compound 1 µM, first compound 3.16 µM
[24] = second compound 1 µM, first compound 10 µM
[25] = second compound 3.16 µM, first compound 0.0316 µM
[26] = second compound 3.16 µM, first compound 0.1 µM
[27] = second compound 3.16 µM, first compound 0.316 µM
[28] = second compound 3.16 µM, first compound 1 µM
[29] = second compound 3.16 µM, first compound 3.16 µM
[30] = second compound 3.16 µM, first compound 10 µM
[31] = second compound 10 µM, first compound 0.0316 µM
[32] = second compound 10 µM, first compound 0.1 µM
[33] = second compound 10 µM, first compound 0.316 µM
[34] = second compound 10 µM, first compound 1 µM
[35] = second compound 10 µM, first compound 3.16 µM
[36] = second compound 10 µM, first compound 10 µM
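Note: spheroids exposed to the agents for one week before reading.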
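Throughout, for viability, T/C: percent of vehicle DMSO control viability so 100% = untreated growth.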

For `CC1COCCN1c1cc(C2(S(C)(=N)=O)CC2)nc(-c2ccnc3[nH]ccc23)n1` (stereo unspecified) + Cc1cnc(CNC(=O)c2c(=O)c3ccc(N4CCCN(C)CC4)nc3n3c2sc2ccccc23)cn1, the IC50 (second compound 0.0316 µM) was 6990 nM, the IC50 (second compound 0.1 µM) was 3710 nM and the IC50 (second compound 0.316 µM) was 2910 nM. It also gave an IC50 (second compound 1 µM) of 3270 nM, an IC50 (second compound 3.16 µM) of less than 31.6 nM and an IC50 (second compound 10 µM) of less than 31.6 nM. It also gave a viability, T/C [1] of 79.9%, a viability, T/C [2] of 93.9% and a viability, T/C [3] of 71.1%. For the same compound, the viability, T/C [4] was 62.4%, the viability, T/C [5] was 87.8% and the viability, T/C [6] was 36.9%. The viability, T/C [7] was 74%, the viability, T/C [8] was 61.2% and the viability, T/C [9] was 72.7%. The viability, T/C [10] was 68.7%, the viability, T/C [11] was 53.1% and the viability, T/C [12] was 30.2%. The viability, T/C [13] was 83.1%, the viability, T/C [14] was 63.8% and the viability, T/C [15] was 62.8%. It also gave a viability, T/C [16] of 55.9%, a viability, T/C [17] of 57.8% and a viability, T/C [18] of 38.1%. For the same compound, the viability, T/C [19] was 65.2%, the viability, T/C [20] was 57.2% and the viability, T/C [21] was 58.7%. For the same compound, the viability, T/C [22] was 60.9%, the viability, T/C [23] was 49.3% and the viability, T/C [24] was 32.4%. For the same compound, the viability, T/C [25] was 48.8%, the viability, T/C [26] was 49.9% and the viability, T/C [27] was 51.8%. The viability, T/C [28] was 39.9%, the viability, T/C [29] was 49.2% and the viability, T/C [30] was 26.4%. It also gave a viability, T/C [31] of 41.7%, a viability, T/C [32] of 30.1% and a viability, T/C [33] of 34.1%. For the same compound, the viability, T/C [34] was 15.1%, the viability, T/C [35] was 33.7% and the viability, T/C [36] was 6%.
In the case of `Cc1cccc(N(C)C(=O)C2C(O)CCN2c2nc(C)cc(C(F)(F)F)c2C#N)c1` (stereo unspecified) + CN(C)c1ccc(Nc2c3ccc(NC(=O)CCN4CCCC4)cc3nc3cc(NC(=O)CCN4CCCC4)ccc23)cc1, the IC50 (second compound 0.0316 µM) is reported as greater than 10000 nM, the IC50 (second compound 0.1 µM) is reported as greater than 10000 nM and the IC50 (second compound 0.316 µM) is reported as greater than 10000 nM. For the same compound, the IC50 (second compound 1 µM) was greater than 10000 nM, the IC50 (second compound 3.16 µM) was greater than 10000 nM and the IC50 (second compound 10 µM) was 3950 nM. The viability, T/C [1] was 114%, the viability, T/C [2] was 96.9% and the viability, T/C [3] was 98.3%. The viability, T/C [4] was 105%, the viability, T/C [5] was 91.5% and the viability, T/C [6] was 103%. It also gave a viability, T/C [7] of 103%, a viability, T/C [8] of 107% and a viability, T/C [9] of 107%. It also gave a viability, T/C [10] of 108%, a viability, T/C [11] of 103% and a viability, T/C [12] of 84.9%. The viability, T/C [13] was 94%, the viability, T/C [14] was 124% and the viability, T/C [15] was 100%. The viability, T/C [16] was 125%, the viability, T/C [17] was 118% and the viability, T/C [18] was 113%. For the same compound, the viability, T/C [19] was 98.5%, the viability, T/C [20] was 114% and the viability, T/C [21] was 106%. The viability, T/C [22] was 101%, the viability, T/C [23] was 106% and the viability, T/C [24] was 111%. It also gave a viability, T/C [25] of 114%, a viability, T/C [26] of 106% and a viability, T/C [27] of 106%. It also gave a viability, T/C [28] of 95.2%, a viability, T/C [29] of 108% and a viability, T/C [30] of 86.4%. For the same compound, the viability, T/C [31] was 96.6%, the viability, T/C [32] was 78.7% and the viability, T/C [33] was 107%. The viability, T/C [34] was 86.5%, the viability, T/C [35] was 55.2% and the viability, T/C [36] was 29.1%.
`Cc1[nH]c2ccccc2c1CCNCc1ccc(/C=C/C(=O)NO)cc1` + Cc1[nH]c2ccc(F)cc2c1-c1nc2c3cccnc3c3ncccc3c2[nH]1 gave an IC50 (second compound 0.0316 µM) of 62.9 nM, an IC50 (second compound 0.1 µM) of 63 nM and an IC50 (second compound 0.316 µM) of 58 nM. For the same compound, the IC50 (second compound 1 µM) was 23.9 nM, the IC50 (second compound 3.16 µM) was less than 0.999 nM and the IC50 (second compound 10 µM) was 39.1 nM. The viability, T/C (second compound 0.0316 µM, first compound 0.000999 µM) was 110%, the viability, T/C (second compound 0.0316 µM, first compound 0.00316 µM) was 115% and the viability, T/C (second compound 0.0316 µM, first compound 0.00999 µM) was 131%. It also gave a viability, T/C [1] of 82.5%, a viability, T/C (second compound 0.0316 µM, first compound 0.0999 µM) of 28% and a viability, T/C [3] of 0.83%. The viability, T/C (second compound 0.1 µM, first compound 0.000999 µM) was 111%, the viability, T/C (second compound 0.1 µM, first compound 0.00316 µM) was 108% and the viability, T/C (second compound 0.1 µM, first compound 0.00999 µM) was 103%. It also gave a viability, T/C [7] of 77.8%, a viability, T/C (second compound 0.1 µM, first compound 0.0999 µM) of 31.4% and a viability, T/C [9] of 1.46%. It also gave a viability, T/C (second compound 0.316 µM, first compound 0.000999 µM) of 107%, a viability, T/C (second compound 0.316 µM, first compound 0.00316 µM) of 108% and a viability, T/C (second compound 0.316 µM, first compound 0.00999 µM) of 90.2%. For the same compound, the viability, T/C [13] was 73.5%, the viability, T/C (second compound 0.316 µM, first compound 0.0999 µM) was 30.1% and the viability, T/C [15] was 0.7%. For the same compound, the viability, T/C (second compound 1 µM, first compound 0.000999 µM) was 71.8%, the viability, T/C (second compound 1 µM, first compound 0.00316 µM) was 58% and the viability, T/C (second compound 1 µM, first compound 0.00999 µM) was 62.6%. It also gave a viability, T/C [19] of 47.1%, a viability, T/C (second compound 1 µM, first compound 0.0999 µM) of 22.4% and a viability, T/C [21] of 0.79%. For the same compound, the viability, T/C (second compound 3.16 µM, first compound 0.000999 µM) was 32.2%, the viability, T/C (second compound 3.16 µM, first compound 0.00316 µM) was 32.8% and the viability, T/C (second compound 3.16 µM, first compound 0.00999 µM) was 41.1%. The viability, T/C [25] was 32.7%, the viability, T/C (second compound 3.16 µM, first compound 0.0999 µM) was 25.1% and the viability, T/C [27] was 0.97%. The viability, T/C (second compound 10 µM, first compound 0.000999 µM) was 84.1%, the viability, T/C (second compound 10 µM, first compound 0.00316 µM) was 64.8% and the viability, T/C (second compound 10 µM, first compound 0.00999 µM) was 79.1%. The viability, T/C [31] was 48.3%, the viability, T/C (second compound 10 µM, first compound 0.0999 µM) was 33.6% and the viability, T/C [33] was 0.53%.
